Assay results taken from patent US20060069132A1, “Azolecarboxamide herbicides” (priority 2004, published 2006).

Legend:
[1] = tested on: blackgrass (ALOMY); test: Test J Compounds 2 and 6 alone and in combination with other herbicides, foliage spray; assay type: in vivo, Alopecurus myosuroides; set-up: key: 0 = no effect, 100 = complete control; conditions: applied alone
Description: (§1) Colby's Equation was used to calculate the expected additive herbicidal effect of the mixtures of Compound 6 with Harmony® Extra (i.e. a 2:1 mixture by weight of thifensulfuron-methyl and tribenuron-methyl). Colby's Equation (Colby, S. R. “Calculating Synergistic and Antagonistic Responses of Herbicide Combinations,” Weeds, 15(1), pp 20-22 (1967)) calculates the expected additive effect of herbicidal mixtures, and for two active ingredients is of the form: Pa+b=Pa+Pb−(PaPb/100) wherein • Pa+b is the percentage effect of the mixture expected from additive contribution of the individual components, • Pa is the observed percentage effect of the first active ingredient at the same use rate as in the mixture, and • Pb is the observed percentage effect of the second active ingredient at the same use rate as in the mixture.
(§2) Seeds of test plants consisting of barnyardgrass (ECHCG; Echinochloa crus-galli (L.) Beauv.), blackgrass (ALOMY; Alopecurus myosuroides Huds.), Surinam grass (BRADC; Urochloa decumbens (Staph) R. D. Webster, previously named Brachiaria decumbens Stapf), cocklebur (XANST, Xanthium strumarium L.), corn (ZEAMD, Zea mays L. cv. ‘Pioneer 33G26’), large crabgrass (DIGSA, Digitaria sanguinalis (L.) Scop.), giant foxtail (SETFA, Setaria faberi Herrm.), lambsquarters (CHEAL, Chenopodium album L.), morningglory (IPOCO, Ipomoea coccinea L.), pigweed (AMARE, Amaranthus retroflexus L.), velvetleaf (ABUTH, Abutilon theophrasti Medik.) wheat (TRZAS, Triticum aestivum L. cv. ‘Recital’) and wild oat (AVEFA, Avena fatua L.) were planted in Redi-Earth® planting medium (Scotts Company, 14111 Scottslawn Road, Marysville, Ohio 43041) comprising spaghnum peat moss and vermiculite. Seeds of small-seeded species were planted about 1 cm deep; larger seeds were planted about 2.5 cm deep. Plants were grown in a greenhouse using supplemental lighting to maintain a photoperiod of about 14 hours; daytime and nighttime temperatures were about 24-30° C. and 22-25° C., respectively. Balanced fertilizer was applied through the watering system. The plants were grown for 7 to 11 days so that at time of treatment the plants ranged in height from 2 to 18 cm (1- to 4-leaf stage). Treatments consisted of Compounds 2 and 6 (technical material), atrazine (90DF), terbacil (Sinbar® 80DF), hexazinone (Velpar® 75WG), diuron (Karmex® 80WP) and paraquat (Gramoxone® Extra, 37%) alone and in combination, suspended or dissolved in an aqueous solvent comprising a nonionic surfactant and applied as a foliage spray using a volume of 541 L/ha. Each treatment was triply replicated. […] Treated plants and controls were maintained in the greenhouse and watered as needed with care to not wet the foliage for the first 24 hours after treatment. The effects on the plants 15 days after treatment were visually compared to untreated controls. Plant response ratings, listed in Table J as the means of the thee replicates, are based on a scale of 0 to 100 where 0 is no effect and 100 is complete control. Also listed in Table J are the expected effects for the mixtures calculated using Colby's Equation.

[2] = tested on: Surinam grass (BRADC); test: as above; assay type: in vivo, Urochloa decumbens; set-up: key: 0 = no effect, 100 = complete control; conditions: applied alone
Description: as §1, §2

[3] = tested on: wild oat (AVEFA); test: as above; assay type: in vivo, Avena fatua; set-up: key: 0 = no effect, 100 = complete control; conditions: applied alone
Description: as §1, §2

[4] = tested on: pigweed (AMARE); test: as above; assay type: in vivo, Amaranthus retroflexus; set-up: key: 0 = no effect, 100 = complete control; conditions: applied alone
Description: as §1, §2

[5] = tested on: wild buckwheat; test: Test F pre-/postemergence herbicide test; assay type: in vivo, Polygonum convolvulus; conditions: 125 g ai/ha
Description: Seeds of plant species selected from annual blugrass (Poa annua L.), blackgrass (Alopecurus myosuroides Huds.), catchweed bedstraw (Gallium aparine L.), common chickweed (Stellaria media (L.) Vill./Cyr.), downy bromegrass (Bromus tectorum L.), green foxtail (Setaria viridis (L.) Beauv.), Italian ryegrass (Lolium multiflorum Lam.), kochia (Kochia scoparia (L.). Schrad.), lambsquarters (Chenopodium album L.), littleseed canarygrass (Phalaris minor Retz.), pigweed (Amaranthus retroflexus L.), Russian thistle (Salsola kali L. ssp. Ruthenica (Iljin) Soo), wild buckwheat (Polygonum convolvulus L.), wild mustard (Sinapis arvensis L.), wild oat (Avena fatua L.), windgrass (Apera spica-venti (L.) Beauv.), winter barley (Hordeum vulgare L.), and wheat (Triticum aestivum L.) were planted and treated preemergence with test chemicals formulated in a non-phytotoxic solvent mixture which included a surfactant.
At the same time, plants selected from these crop and weed species were treated with postemergence applications of some of the test chemicals formulated in the same manner. Plants ranged in height from 2 to 18 cm (1- to 4-leaf stage) for postemergence treatments. Treated plants and controls were maintained in a greenhouse for 12 to 14 days, after which time all species were compared to controls and visually evaluated. […]

| Structure (SMILES) | ALOMY Obsd. ([1]; 62 g a.i./ha) | ALOMY Obsd. ([1]; 125 g a.i./ha) | BRADC Obsd. ([2]; 62 g a.i./ha) | BRADC Obsd. ([2]; 125 g a.i./ha) | AVEFA Obsd. ([3]; 62 g a.i./ha) | AVEFA Obsd. ([3]; 125 g a.i./ha) | AMARE Obsd. ([4]; 62 g a.i./ha) | AMARE Obsd. ([4]; 125 g a.i./ha) | Plant response rating (0-100), Buckwheat, Wild ([5]; Postemergence) | Plant response rating (0-100), Buckwheat, Wild ([5]; Preemergence) |
| --- | --- | --- | --- | --- | --- | --- | --- | --- | --- | --- |
| CCNC(=O)c1ccc(F)c(NC(=O)c2cc(C(C)(C)C)nn2CC)c1 [Compound 2, 3-(1,1-dimethylethyl)-1-ethyl-N-[5-[(ethylamino)carbonyl]-2-fluorophenyl]-1H-pyrazole-5-carboxamide] | 15 | 13 | 8 | 17 | 8 | 15 | 47 | 68 |  |  |
| CCc1nn(C(C)(C)C)cc1C(=O)Nc1cc(C(=O)N(CC)CC)ccc1F [Compound 223] |  |  |  |  |  |  |  |  | 40 | 55 |
